Measurements as given in ChEMBL document CHEMBL4382254, “Design, synthesis, structure-activity relationships and mechanism of action of new quinoline derivatives as potential antitumor agents” (Eur J Med Chem, 2019).
Calls of active or inactive are those of the source. The rule behind the calls is not given here.

Tests used:
HCT-116 [1] = experiment: Cytotoxicity against human HCT116 cells assessed as reduction in cell viability measured after 24 hrs by CCK8 assay; format: functional, cell-based; settings: HCT-116, 24 h
HCT-116 [2] = experiment: Induction of apoptosis in human HCT116 cells assessed as viable cells at 2.5 uM after 24 hrs by Annexin V-FITC/propidium iodide staining based flow cytometry (reference value: 87.19%); format: functional; settings: HCT-116, 24 h, read-out: Activity
HCT-116 [3] = experiment: Induction of apoptosis in human HCT116 cells assessed as increase in cleaved PARP level after 24 hrs in presence of pan-caspase inhibitor z-VAD-FMK by immunoblot analysis; format: functional, cell-based
HCT-116 [4] = experiment: Cell cycle arrest in human HCT116 cells assessed as accumulation at G0/G1 phase at 5 uM after 24 hrs by propidium iodide staining based flow cytometry (reference value: 77.78%); format: functional
RKO [5] = experiment: Induction of morphological changes in human RKO cells assessed as cell shrinkage at 5 to 10 uM after 24 hrs by phase contrast microscopic analysis; format: functional, cell-based
HCT-116 [6] = experiment: Cell cycle arrest in human HCT116 cells assessed as accumulation at S phase at 5 uM after 48 hrs by propidium iodide staining based flow cytometry (reference value: 6.79%); format: functional
HCT-116 [7] = experiment: Cytotoxicity against P53-deficient human HCT116 cells assessed as reduction in cell viability measured after 24 hrs by CCK8 assay; format: functional, cell-based; settings: HCT-116, 24 h
DLD-1 [8] = experiment: Induction of morphological changes in human DLD1 cells assessed as reduction in cell number at 5 to 10 uM after 24 hrs by phase contrast microscopic analysis; format: functional, cell-based
[9] = target: Cellular tumor antigen p53 (Homo sapiens) (UniProt P04637); experiment: Activation of P53 in human HCT116 cells assessed as decrease in PARP expression at 2.5 to 20 uM after 24 hrs by immunoblot analysis; format: cell-based
HCT-116 [10] = experiment: Anticancer activity against human HCT116 cells xenografted in […] mouse assessed as tumor growth inhibition at 80 mg/kg administered once every 3 days for 21 days; format: functional, organism-based
HCT-116 [11] = experiment: Induction of apoptosis in human HCT116 cells assessed as early apoptotic cells at 2.5 uM after 24 hrs by Annexin V-FITC/propidium iodide staining based flow cytometry (reference value: 3.32%); format: functional
HCT-116 [12] = experiment: Induction of apoptosis in human HCT116 cells assessed as early apoptotic cells at 2.5 to 5 uM after 24 hrs in presence of pan-caspase inhibitor z-VAD-FMK by Annexin V-FITC/propidium iodide staining based flow cytometry (reference value: 2.5%); format: functional
HCT-116 [13] = experiment: Induction of autophagy in human HCT116 cells expressing GFP-LC3 assessed as increase in LC3 puncta formation at 10 uM after 24 hrs by fluorescence microscopic analysis; format: functional, cell-based
HCT-116 [14] = experiment: Inhibition of colony formation in Bax-deficient human HCT116 cells after 24 hrs by crystal violet staining based assay; format: functional, cell-based
RKO [15] = experiment: Cytotoxicity against human RKO cells assessed as reduction in cell viability at 5 uM incubated for 24 hrs followed by compound washout by CCK8 assay; format: functional, cell-based; settings: TDE = time-dependent effect
DLD-1 [16] = experiment: Inhibition of colony formation in human DLD1 cells after 24 hrs by crystal violet staining based assay; format: functional, cell-based
HCT-116 [17] = experiment: Induction of apoptosis in Bax-deficient human HCT116 cells assessed as necrotic cells at 5 uM after 24 hrs by Annexin V-FITC/propidium iodide staining based flow cytometry (reference value: 6.74%); format: functional
HCT-116 [18] = experiment: Induction of apoptosis in human HCT116 cells assessed as necrotic cells at 2.5 to 5 uM after 24 hrs in presence of pan-caspase inhibitor z-VAD-FMK by Annexin V-FITC/propidium iodide staining based flow cytometry (reference value: 1.83%); format: functional
HCT-116 [19] = experiment: Inhibition of colony formation in human HCT116 cells after 24 hrs by crystal violet staining based assay; format: functional, cell-based
HCT-116 [20] = experiment: Induction of apoptosis in P53-deficient human HCT116 cells assessed as increase in Bax expression at 2.5 to 20 uM after 24 hrs by immunoblot analysis; format: functional, cell-based
HepG2 = experiment: Cytotoxicity against human HepG2 cells after 48 hrs by MTT assay; format: functional, cell-based; settings: HepG2, 48 h
HCT-116 [21] = experiment: Induction of apoptosis in P53-deficient human HCT116 cells assessed as increase in p21 expression at 2.5 to 20 uM after 24 hrs by immunoblot analysis; format: functional, cell-based
HCT-116 [22] = experiment: Induction of apoptosis in human HCT116 cells assessed as increase in early apoptotic cells after 24 hrs by Annexin V-FITC/propidium iodide staining based flow cytometry; format: functional, cell-based
[23] = target: Cellular tumor antigen p53 (Homo sapiens) (UniProt P04637); experiment: Induction of P53 translocation to nucleus in human HCT116 cells measured after 15 to 90 mins by immunoblot analysis; format: cell-based
HCT-116 [24] = experiment: Cytotoxicity against Bax-deficient human HCT116 cells assessed as reduction in cell viability measured after 24 hrs by CCK8 assay; format: functional, cell-based; settings: HCT-116, 24 h
HCT-116 [25] = experiment: Induction of apoptosis in human HCT116 cells assessed as late apoptotic cells at 2.5 to 5 uM after 24 hrs in presence of pan-caspase inhibitor z-VAD-FMK by Annexin V-FITC/propidium iodide staining based flow cytometry (reference value: 7.29%); format: functional
HCT-116 [26] = experiment: Cytotoxicity against human HCT116 cells assessed as reduction in cell viability at 5 uM incubated for 24 hrs followed by compound washout by CCK8 assay; format: functional, cell-based; settings: TDE = time-dependent effect
HCT-116 [27] = experiment: Induction of apoptosis in Bax-deficient human HCT116 cells assessed as late apoptotic cells at 5 uM after 24 hrs by Annexin V-FITC/propidium iodide staining based flow cytometry (reference value: 14.67%); format: functional
[28] = target: Cellular tumor antigen p53 (Homo sapiens) (UniProt P04637); experiment: Induction of P53 phosphorylation at Ser392 residue in human HCT116 cells after 15 to 90 mins by immunoblot analysis; format: cell-based
HCT-116 [29] = experiment: Cell cycle arrest in human HCT116 cells assessed as accumulation at G0/G1 phase at 5 uM after 48 hrs by propidium iodide staining based flow cytometry (reference value: 82.16%); format: functional
[30] = target: Cellular tumor antigen p53 (Homo sapiens) (UniProt P04637); experiment: Activation of P53 in human HCT116 cells assessed as increase in Bax expression at 2.5 to 20 uM after 24 hrs by immunoblot analysis; format: cell-based
HCT-116 [31] = experiment: Induction of apoptosis in P53-deficient human HCT116 cells assessed as early apoptotic cells at 5 uM after 24 hrs by Annexin V-FITC/propidium iodide staining based flow cytometry (reference value: 5.96%); format: functional
HCT-116 [32] = experiment: Induction of apoptosis in human HCT116 cells assessed as late apoptotic cells at 2.5 uM after 24 hrs by Annexin V-FITC/propidium iodide staining based flow cytometry (reference value: 6.08%); format: functional
HCT-116 [33] = experiment: Inhibition of colony formation in P53-deficient human HCT116 cells after 24 hrs by crystal violet staining based assay; format: functional, cell-based
DLD-1 [34] = experiment: Induction of morphological changes in human DLD1 cells assessed as cell shrinkage at 5 to 10 uM after 24 hrs by phase contrast microscopic analysis; format: functional, cell-based
HCT-116 [35] = experiment: Induction of apoptosis in human HCT116 cells assessed as decrease in pro-caspase3 level at 2.5 to 10 uM after 24 hrs by immunoblot analysis; format: functional, cell-based
HCT-116 [36] = experiment: Cell cycle arrest in human HCT116 cells assessed as accumulation at G2/M phase at 5 uM after 48 hrs by propidium iodide staining based flow cytometry (reference value: 11.24%); format: functional

Sequence of Cellular tumor antigen p53 (Homo sapiens) (P04637 whole entry, looked up): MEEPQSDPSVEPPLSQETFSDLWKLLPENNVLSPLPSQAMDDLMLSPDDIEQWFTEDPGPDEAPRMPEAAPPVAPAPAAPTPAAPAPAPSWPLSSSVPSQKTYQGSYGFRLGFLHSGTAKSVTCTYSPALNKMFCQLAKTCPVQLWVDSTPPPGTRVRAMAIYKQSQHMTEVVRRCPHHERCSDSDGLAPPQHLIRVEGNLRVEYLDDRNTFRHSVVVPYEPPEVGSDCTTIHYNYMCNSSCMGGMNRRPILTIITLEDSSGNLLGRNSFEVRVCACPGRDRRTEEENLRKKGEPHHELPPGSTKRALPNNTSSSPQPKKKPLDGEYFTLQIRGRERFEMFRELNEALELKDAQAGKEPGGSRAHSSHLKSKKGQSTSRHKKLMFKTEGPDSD

Question: What does the source list for CN(C)CCNc1ccnc2cc(OCc3ccc(F)cc3)ccc12?
Answer: IC50 (HCT-116 [1]): 72.8 µM; viability at 2.5 µM (HCT-116 [2]): 78.1%; Activity (HCT-116 [3]): inactive; Activity (HCT-116 [4]): 82.21%; Activity (RKO [5]): Active; Activity (HCT-116 [6]): 7.61%; IC50 (HCT-116 [7]): 18.1 µM; Activity (DLD-1 [8]): Active; Activity [9]: Active; TGI (HCT-116 [10]): Active; Activity (HCT-116 [11]): 4.94%; Activity (HCT-116 [12]): 3.15%; Activity (HCT-116 [13]): inactive; inhibition (HCT-116 [14]): inactive; Activity (RKO [15]): Tde; inhibition (DLD-1 [16]): Dose-dependent effect; Activity (HCT-116 [17]): 1.24%; Activity (HCT-116 [18]): 2.65%; inhibition (HCT-116 [19]): Dose-dependent effect; Activity (HCT-116 [20]): inactive; IC50 (HepG2): 0.79 µM; Activity (HCT-116 [21]): inactive; Activity (HCT-116 [22]): Dose-dependent effect; Activity [23]: Active; IC50 (HCT-116 [24]): 31.1 µM; Activity (HCT-116 [25]): 10.05%; Activity (HCT-116 [26]): Tde; Activity (HCT-116 [27]): 7.29%; Activity [28]: Active; Activity (HCT-116 [29]): 83.72%; Activity [30]: Active; Activity (HCT-116 [31]): 5.29%; Activity (HCT-116 [32]): 10.32%; inhibition (HCT-116 [33]): inactive; Activity (DLD-1 [34]): Active; Activity (HCT-116 [35]): Active; Activity (HCT-116 [36]): 8.88%
